From patent US8097650B2, “Method of treating a condition associated with phosphorylation of TASK-1” (The Trustees of Columbia University In The City of New York, priority 2005, dated 2012)

What was measured:
[1] = system: mouse ventricular myocytes; test: Repolarization abnormalities in mouse ventricular myocytes paced at 1 Hz with PKCε peptides; type: cell-based
Description: Mouse ventricular myocytes were isolated using a retrograde coronary perfusion method previously published (Kuznetsov V et al. (1995) Circ Res 76: 40-52). All the experiments were carried out according to the guidelines issued by the IACUC of Columbia University. Adult mice 2 or 3 months old, were anaesthetized with a xylazine and ketamine mix and heparinized, the heart was quickly removed and the ascending aorta was connected to the outlet of a Langendorff column and perfused with 20-25 ml of a buffer solution (37° C.) containing (mM):NaCl, 112; KCl, 5.4; NaHCO3, 4.2; MgCl2, 1.6; HEPES, 20; glucose, 5.4; NaH2PO4, 1.7; taurine, 10; L-glutamine, 4.1; MEM amino acids solution, 2%; MEM vitamin solution, 1%; adjusted to pH 7.4, and equilibrated with 100% O2. Next, the heart was perfused with an enzyme solution containing collagenase (0.2 mg/ml; Worthington Type II) and trypsin (0.04 mg/ml) at 35° C. for 10-12 min. After this perfusion, the atria were removed and the ventricles minced and transferred to a 50 ml flask with an enzyme solution containing collagenase (0.45 mg/ml), trypsin (0.08 mg/ml), Ca^2+ (0.75 mM) and bovine serum albumin (BSA; 4.8 mg/ml). The flask was shaken vigorously for 5-10 min at 32° C. before the supernatant was removed and the cells were collected by centrifugation, this operation was repeated two or three times and additional disaggregated cells were collected. After centrifugation, the myocytes were resuspended in the buffer solution containing Ca^2+ (0.75 mM) and BSA and stored at room temperature until use. Rod-shaped, Ca^2+-tolerant myocytes, obtained with this procedure, were used within 6 h of dissociation. Measurements were performed only on quiescent myocytes with clear striations
The myocyte suspension or the coverslip with CHO cells was placed into a perfusion chamber, mounted on the stage of an inverted microscope. Unless otherwise indicated, CHO cells were superfused at room temperature with standard external Tyrode's buffer, containing (mM): NaCl, 140; KCl, 5.4; CaCl2, 1; MgCl2, 1; HEPES, 5; glucose, 10; adjusted to pH 7.4. Recordings were begun after the current reached a stable baseline (usually 3 to 4 min after initial cell rupture). In myocytes, TASK-1 current is small and exists in the presence of numerous larger K^+ currents. In order to increase the inward component of TASK-1 current and to block other potassium currents in myocytes, a modified high K^+ external solution (modified Tyrode's) was used to reduce outward rectification of TASK-1 current. The composition of this solution-was (in mM): NaCl, 100; KCl, 50; CaCl2, 1; MgCl2, 1; HEPES, 5; glucose, 10; tetraethylammonium (TEA), 1; CsCl, 5; adjusted to pH 7.4. Membrane potential and current were measured in the whole cell configuration using borosilicate glass pipettes with a tip resistance between […] and filled with a pipette solution containing (mM): aspartic acid, 130; KOH, 146; NaCl, 10; CaCl2, 2; EGTA, 5; HEPES, 10; MGATP, 2; pH 7.2. The stock solutions of C-PAF and of the PKC inhibitor, bisindolylmaleimide (BIM-I; Calbiochem), were prepared in water and diluted to the final concentrations in Tyrode's or modified Tyrode's, as appropriate. The PKC activator, PMA, was prepared in DMSO and then diluted in Tyrode's. […] Myocytes treated with the peptides were monitored continuously beginning immediately after rupture to detect the occurrence of any arrhythmias during dialysis of the peptide. Application of C-PAF to cells treated with the inhibitor peptide was started after the peptide had been permitted to dialyse into the cell (8-10 min after rupture for CHO or 10-12 min after rupture for myocytes).
The current and the voltage protocols were generated using Clampex 8.0 software applied by means of an Axopatch 200-B and a Digidata 1200 interface (Axon Instruments). In current clamp mode, for recording action potentials, the signals were filtered at 1 KHz (low pass Bessel filter) and acquired at a sampling rate of 5 KHz. […]

[2] = system: mouse ventricular myocytes; test: Action potentials in paced mouse ventricular myocytes (current clamp); type: cell-based; conditions: C-PAF 185 nM
Description: Adult mice, 2-3 months old, were anesthetized with ketamine/xylazine and their hearts were removed according to protocols approved by the Columbia University-IACUC. Experiments were performed on single rod-shaped, quiescent ventricular myocytes dissociated using a standard retrograde collagenase perfusion (Kuznetsov V et al. (1995) Circ Res 76: 40-52) from hearts of mice that were either wild-type (WT), or PAFR knockouts (KO). Both WT and KO mice were bred on a C57/B16 background. The derivation of the KO mice has been described previously (Hoffman, B F et al.(1996) J Cardiovasc Electrophysiol 7:120-133).
Prior to electrophysiological measurements, cells were placed into the perfusion chamber and superfused at room temperature with Tyrode's buffer (in mM: NaCl, 140; KCl, 5.4; CaCl2 1; MgCl2, Hepes, 5; Glucose, 10; pH 7.4). […]
Current and voltage protocols were generated using Clampex 7.0 software applied by means of an Axopatch 200B amplifier and a Digidata 1200 interface (Axon Instruments). […] Data were analyzed using pCLAMP 8.0 (Axon) and Origin 6.0 (Microcal) and are presented as mean±SEM. Steady-state current was determined by computer calculation of average current over a time period of at least 5 s. […] Records have been corrected for the junction potential, which was measured to be 9.8 mV.

CCCCCCCCCCCCCCCCOC[C@H](COP(=O)([O-])OCC[N+](C)(C)C)OC(=O)NC [C-PAF, carbamyl-platelet-activating factor]
cells with repolarization abnormalities ([1]; C-PAF 2 min, no peptide in pipette): 5 of 7
repolarization abnormalities ([1]; C-PAF, PKCε-specific inhibitor peptide 100 nM in pipette): failed to induce repolarization abnormalities in any of the 8 cells
cells with abnormalities during repolarization ([1]; C-PAF, scrambled peptide 100 nM in pipette): 14 of 19
cells in which membrane potential returned to normal during agonist perfusion ([2]; 3 min perfusion): 8 of 9
delay before C-PAF-evoked responses ([2]; paced WT myocytes): 94 ± 21 s
